Test results published in ChEMBL document CHEMBL2021874, “Discovery of a series of 2-(1H-pyrazol-1-yl)pyridines as ALK5 inhibitors with potential utility in the prevention of dermal scarring” (Bioorg Med Chem Lett, 2012).
The source made the active and inactive calls. The rule behind the calls is not given here.

Columns and labels:
[1] = target: T1, TGF-beta receptor type-1 (Homo sapiens, UniProt P36897); assay: Inhibition of ALK5
T1 sequence (P36897 whole entry): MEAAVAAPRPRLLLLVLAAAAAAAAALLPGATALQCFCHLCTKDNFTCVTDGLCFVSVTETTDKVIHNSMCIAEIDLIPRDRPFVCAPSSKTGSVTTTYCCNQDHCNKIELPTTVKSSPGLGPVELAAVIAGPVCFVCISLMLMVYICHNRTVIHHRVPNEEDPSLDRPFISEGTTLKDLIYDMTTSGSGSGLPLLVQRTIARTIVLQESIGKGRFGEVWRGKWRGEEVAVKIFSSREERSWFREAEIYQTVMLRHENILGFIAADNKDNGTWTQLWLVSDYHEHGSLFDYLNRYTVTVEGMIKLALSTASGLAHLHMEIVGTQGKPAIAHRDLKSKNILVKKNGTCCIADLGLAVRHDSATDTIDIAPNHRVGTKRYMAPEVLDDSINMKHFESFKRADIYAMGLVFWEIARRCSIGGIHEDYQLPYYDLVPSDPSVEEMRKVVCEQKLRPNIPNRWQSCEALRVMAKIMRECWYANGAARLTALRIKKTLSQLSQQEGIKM

[2] = Photostability of the compound assessed as compound remaining after exposure to sunlight; assay type: physicochemical
[3] = target: T2, TGF-beta receptor type-1 (Mus musculus, UniProt Q64729); assay: Inhibition of ALK5 in mouse NIH/3T3 cells by smad binding element reporter based assay; assay type: cell-based
T2 sequence (Q64729 whole entry): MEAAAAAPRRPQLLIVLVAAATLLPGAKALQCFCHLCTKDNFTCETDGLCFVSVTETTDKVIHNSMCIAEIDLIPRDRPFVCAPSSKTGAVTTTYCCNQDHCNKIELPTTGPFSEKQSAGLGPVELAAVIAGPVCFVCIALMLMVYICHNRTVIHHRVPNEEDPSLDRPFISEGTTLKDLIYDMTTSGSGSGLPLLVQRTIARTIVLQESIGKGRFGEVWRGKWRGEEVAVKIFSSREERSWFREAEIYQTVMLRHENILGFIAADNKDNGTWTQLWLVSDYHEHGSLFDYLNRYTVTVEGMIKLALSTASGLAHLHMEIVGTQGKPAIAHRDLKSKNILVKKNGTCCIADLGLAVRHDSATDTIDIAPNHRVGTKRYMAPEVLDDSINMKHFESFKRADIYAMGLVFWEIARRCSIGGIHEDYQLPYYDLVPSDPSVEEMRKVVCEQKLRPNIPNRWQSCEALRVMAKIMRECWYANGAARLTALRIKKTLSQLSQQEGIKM

[4] = Photostability of the compound assessed as compound degradation after exposure to sunlight; assay type: physicochemical; settings: read-out: Drug degradation
[5] = test system: Rattus norvegicus; assay: Inhibition of dermal injury-induced FN1 gene expression in rat wound repair model treated topically after 7 days; assay type: functional, organism-based
[6] = test system: Rattus norvegicus; assay: Inhibition of dermal injury-induced PAI1 gene expression in rat wound repair model treated topically after 7 days; assay type: functional, organism-based
[7] = test system: Fibroblast; assay: Inhibition of in TGFbeta-induced SMAD2/3 phosphorylation in human fibroblasts; assay type: functional, cell-based
[8] = target: Activin receptor type-1-like (Homo sapiens, UniProt P37023); assay: Inhibition of ALK1
[9] = test system: Rattus norvegicus; assay: Inhibition of dermal injury-induced FSP1 gene expression in rat wound repair model treated topically after 7 days; assay type: functional, organism-based
[10] = test system: Fibroblast; assay: Inhibition of in TGFbeta-induced CTGF gene expression in human fibroblasts; assay type: functional, cell-based
[11] = test system: Rattus norvegicus; assay: Inhibition of dermal injury-induced CTGF gene expression in rat wound repair model treated topically after 7 days; assay type: functional, organism-based
[12] = test system: Fibroblast; assay: Inhibition of in TGFbeta-induced TGFbeta1 gene expression in human fibroblasts; assay type: functional, cell-based
[13] = test system: Fibroblast; assay: Inhibition of in TGFbeta-induced FN1 gene expression in human fibroblasts; assay type: functional, cell-based
[14] = test system: Rattus norvegicus; assay: Inhibition of wound healing in rat wound repair model treated topically by measuring wound closure after 7 days; assay type: functional, organism-based
[15] = test system: Fibroblast; assay: Inhibition of in TGFbeta-induced PAI1 gene expression in human fibroblasts; assay type: functional, cell-based
[16] = test system: Rattus norvegicus; assay: Inhibition of dermal injury-induced alpha-SMA gene expression in rat wound repair model treated topically after 7 days; assay type: functional, organism-based
[17] = test system: Fibroblast; assay: Inhibition of in TGFbeta-induced FSP1 gene expression in human fibroblasts; assay type: functional, cell-based
[18] = test system: Fibroblast; assay: Inhibition of in TGFbeta-induced alpha-SMA gene expression in human fibroblasts; assay type: functional, cell-based
[19] = test system: Rattus norvegicus; assay: Inhibition of dermal injury-induced TGFbeta-1 gene expression in rat wound repair model treated topically after 7 days; assay type: functional, organism-based
[20] = test system: Fibroblast; assay: Inhibition of in TGFbeta-induced COL1A gene expression in human fibroblasts; assay type: functional, cell-based
[21] = target: T3, Activin receptor type-1B (Homo sapiens, UniProt P36896); assay: Inhibition of ALK4
T3 sequence (P36896 whole entry): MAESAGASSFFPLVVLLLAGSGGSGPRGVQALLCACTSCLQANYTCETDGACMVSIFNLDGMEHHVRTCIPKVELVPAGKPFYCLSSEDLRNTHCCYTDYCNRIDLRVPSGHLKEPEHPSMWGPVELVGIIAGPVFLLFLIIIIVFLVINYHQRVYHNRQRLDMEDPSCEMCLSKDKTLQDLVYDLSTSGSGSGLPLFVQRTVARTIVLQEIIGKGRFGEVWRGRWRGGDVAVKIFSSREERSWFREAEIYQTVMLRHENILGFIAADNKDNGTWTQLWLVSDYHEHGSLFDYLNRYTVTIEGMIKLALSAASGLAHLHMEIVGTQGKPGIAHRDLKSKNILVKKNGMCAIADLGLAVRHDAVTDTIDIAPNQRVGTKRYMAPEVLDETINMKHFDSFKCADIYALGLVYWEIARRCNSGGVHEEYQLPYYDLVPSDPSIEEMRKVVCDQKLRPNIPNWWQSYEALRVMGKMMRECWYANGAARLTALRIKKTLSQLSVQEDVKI

[22] = test system: Rattus norvegicus; assay: Inhibition of dermal injury-induced CLO1A gene expression in rat wound repair model treated topically after 7 days; assay type: functional, organism-based
[23] = test system: Rattus norvegicus; assay: Inhibition of dermal injury-induced new collagen synthesis in rat wound repair model at 1% treated topically after 7 days; assay type: functional

Chain of Activin receptor type-1-like (P37023 whole entry): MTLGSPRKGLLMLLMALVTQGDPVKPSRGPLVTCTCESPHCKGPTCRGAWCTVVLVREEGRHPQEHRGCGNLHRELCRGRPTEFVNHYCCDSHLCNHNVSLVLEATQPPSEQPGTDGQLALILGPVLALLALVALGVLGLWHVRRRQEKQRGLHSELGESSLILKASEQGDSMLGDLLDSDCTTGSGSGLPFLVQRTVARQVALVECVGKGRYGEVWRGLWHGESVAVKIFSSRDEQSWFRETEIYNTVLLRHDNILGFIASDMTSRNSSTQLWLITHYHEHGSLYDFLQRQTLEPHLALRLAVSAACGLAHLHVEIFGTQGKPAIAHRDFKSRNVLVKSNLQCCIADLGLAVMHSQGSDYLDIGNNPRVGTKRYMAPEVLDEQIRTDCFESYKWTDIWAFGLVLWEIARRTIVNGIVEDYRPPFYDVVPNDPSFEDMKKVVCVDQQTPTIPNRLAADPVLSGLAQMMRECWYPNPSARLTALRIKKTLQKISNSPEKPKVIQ

Row | IC50 [1] [nM] | Stability [2] [%] | IC50 [3] [nM] | SMILES | also measured
1 | 69 | 100 | 708 | CCn1cnc2ccc(-c3ccnn3-c3cccc(C)n3)cc2c1=O | –
2 | 1 | – | 61 | Cc1cccc(-n2ncc(C)c2-c2ccc3nc[nH]c(=O)c3c2)n1 | –
3 | 4 | 99 | 135 | Cc1cccc(-n2ncc(C)c2-c2ccc3ncn(C)c(=O)c3c2)n1 | –
4 | – | 32 | – | Cc1cccc(-c2n[nH]cc2-c2ccc3ncn(C)c(=O)c3c2)n1 | degraded [4]: 68%
5 | 1 | – | 274 | CCc1cc(-c2ccc3ncn(C)c(=O)c3c2)n(-c2cccc(C)n2)n1 | –
6 | 5 | 100 | 46 | Cc1cccc(-n2nc3c(c2-c2ccc4nc[nH]c(=O)c4c2)CCC3)n1 | –
7 | 2 | – | 47 | CCc1cnn(-c2cccc(C)n2)c1-c1ccc2nc[nH]c(=O)c2c1 | –
8 | 4 | 100 | 44 | C=Cn1cnc2ccc(-c3ccnn3-c3cccc(C)n3)cc2c1=O | –
9 | 13 | 99.4 | 211 | Cc1cccc(-n2nccc2-c2ccc3ncn(C)c(=O)c3c2)n1 | inhibition [5]: Dose-dependent effect; inhibition [6]: Dose-dependent effect; inhibition [7]: Dose-dependent effect; IC50 [8]: > 5000 nM; inhibition [9]: Dose-dependent effect; inhibition [10]: Dose-dependent effect; inhibition [11]: Dose-dependent effect; inhibition [12]: Dose-dependent effect; inhibition [13]: Dose-dependent effect; inhibition [14]: inactive; inhibition [15]: Dose-dependent effect; inhibition [16]: Dose-dependent effect; inhibition [17]: Dose-dependent effect; inhibition [18]: Dose-dependent effect; inhibition [19]: Dose-dependent effect; inhibition [20]: Dose-dependent effect; IC50 [21]: 59 nM; inhibition [22]: Dose-dependent effect; inhibition (INH) [23]: 26%
10 | 6 | – | 73 | Cc1cccc(-n2nccc2-c2ccc3nc[nH]c(=O)c3c2)n1 | –
11 | 3 | – | 695 | Cc1cccc(-n2nc(C)cc2-c2ccc3ncn(C)c(=O)c3c2)n1 | –
